PubChem BioAssay (NCI)
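Assay format: 96-well plates, 48-hour exposure. Here, GI50 denotes the concentration required for 50% inhibition of growth. Definition used: TGI = concentration required for complete inhibition of growth.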 Where a SMILES comes first, the peptide text is derived from it.

What was measured:
Assay in all cases: inhibition of tumour cell growth, NCI panel, 48 h
[1] = tested on: HOP-92 NSCLC
[2] = tested on: SF-295 CNS
[3] = tested on: KM12 colon
[4] = tested on: OVCAR-3 ovarian
[5] = tested on: SF-539 CNS
[6] = tested on: UACC-62 melanoma
[7] = tested on: SK-MEL-28 melanoma
[8] = tested on: MCF7 breast
[9] = tested on: OVCAR-5 ovarian
[10] = tested on: HCT-116 colon

Row | SMILES | TGI [1] | TGI [2] | TGI [3] | TGI [4] | TGI [5] | TGI [6] | TGI [7] | TGI [8] | TGI [9] | TGI [10] | GI50 [1] | GI50 [2] | GI50 [3] | GI50 [4] | GI50 [5] | GI50 [6] | GI50 [7] | GI50 [8] | GI50 [9] | GI50 [10]
1 | Cc1ccc(/C=C2\CN(C)CC3=C2OC(N)=C(C#N)C3c2ccc(C)cc2)cc1 (stereo not drawn) | 15.9 µM | 46 µM | 39.3 µM | 29.8 µM | > 100 µM | 89.1 µM | > 71.5 µM | 47.8 µM | 55.7 µM | 27.5 µM | – | – | – | – | – | – | – | – | – | –
2 | CCN(CC)c1ccc(/C=C(\C#N)c2nc(N)nc(N3N=C(C)CC3(C)C)n2)cc1 | 22.4 µM | 49.7 µM | > 100 µM | 37.9 µM | 19.9 µM | > 100 µM | > 100 µM | > 100 µM | 93.9 µM | 34.1 µM | – | – | – | – | – | – | – | – | – | –
3 | CCN(CC)C(=S)SS(=O)(=O)c1ccccc1C(=O)O | > 100 µM | > 100 µM | > 100 µM | > 100 µM | > 100 µM | > 100 µM | > 100 µM | > 100 µM | > 100 µM | > 100 µM | – | – | – | – | – | – | – | – | – | –
4 | C=C1C(=O)O[C@@H]2[C@H]3O[C@]3(C)CCC=C(C)CC[C@@H]12 | 26.5 µM | 83.2 µM | 53.6 µM | 40.7 µM | 44.6 µM | 37.7 µM | 44.3 µM | 47.4 µM | 63.6 µM | 35.1 µM | – | – | – | – | – | – | – | – | – | –
5 | NC(=O)NC(=O)c1cnccn1 | > 100 µM | > 100 µM | > 100 µM | > 100 µM | > 100 µM | > 100 µM | > 100 µM | > 100 µM | > 100 µM | > 100 µM | – | – | – | – | – | – | – | – | – | –
6 | CC1=C2C(O)C(C(C)C(=O)NCC(C)C)CCC2(C)C=CC1=O (stereo not drawn) | > 100 µM | > 100 µM | > 100 µM | > 100 µM | > 100 µM | > 100 µM | > 100 µM | > 100 µM | > 100 µM | > 100 µM | – | – | – | – | – | – | – | – | – | –
7 | CN(C)CCCNc1c(O)c2c(c(O)c1Cl)C(=O)C=CC2=O | > 10 µM | 3.27 µM | > 10 µM | 6.6 µM | 3.22 µM | 3.18 µM | 2.85 µM | 3.22 µM | 3 µM | 5.1 µM | – | – | – | – | – | – | – | – | – | –
8 | CCc1ccc(-c2nnc(COc3ccc(-c4nc5ccc(C)cc5[nH]4)cc3OC)o2)cc1 | 5.83 µM | 5.75 µM | > 100 µM | 4.49 µM | 3.21 µM | 5.09 µM | 6.66 µM | > 100 µM | > 100 µM | 11.2 µM | 2.07 µM | 2.33 µM | 5.39 µM | 2.23 µM | 1.7 µM | 2.12 µM | 2.36 µM | 3.36 µM | 5.21 µM | 3.19 µM
9 | CC1NC(=O)CNC(=O)CNC(=O)C(Cc2ccc(O)cc2)NC(=O)C(C(C)C)NC(=O)C(C)NC1=O (stereo not drawn) (cyclo(GGAAVY); configuration not given here) | > 100 µM | > 100 µM | > 100 µM | > 100 µM | > 100 µM | > 100 µM | > 100 µM | > 100 µM | > 100 µM | > 100 µM | > 100 µM | – | – | – | – | – | – | – | – | –
10 | CNc1ncnc(Sc2nc(N)nc3nc[nH]c23)c1[N+](=O)[O-] | 16.4 µM | > 100 µM | 25.3 µM | 12 µM | 28.9 µM | 16.2 µM | 22.2 µM | > 41.5 µM | > 77.4 µM | 11.9 µM | – | – | – | – | – | – | – | – | – | –
11 | CCOP(=O)(OCC)C(NC(=O)OCC(Cl)(Cl)Cl)n1nnc(C(=O)OC)c1C(=O)OC (stereo not drawn) | > 100 µM | > 100 µM | > 100 µM | > 100 µM | > 100 µM | > 100 µM | > 100 µM | > 100 µM | – | > 100 µM | – | – | – | – | – | – | – | – | – | –
12 | c1ccc(N=C2c3ccccc3CN2c2ccccc2)cc1 | > 100 µM | > 100 µM | > 100 µM | > 100 µM | > 100 µM | > 100 µM | > 100 µM | > 100 µM | – | > 100 µM | – | – | – | – | – | – | – | – | – | –
13 | COc1ccc2[nH]c(CCNC(=O)c3cc([N+](=O)[O-])cc([N+](=O)[O-])c3)cc2c1 | 93.8 µM | – | > 100 µM | > 100 µM | > 100 µM | > 100 µM | > 100 µM | > 100 µM | – | > 100 µM | – | – | – | – | – | – | – | – | – | –
14 | CCCCCCCCCOC(=O)c1cnc(Cl)cn1 | > 100 µM | 34.6 µM | 33.4 µM | – | 58.1 µM | 33.3 µM | 52.7 µM | 57.7 µM | 70.8 µM | 31.5 µM | – | – | – | – | – | – | – | – | – | –
15 | CC(C(=O)N1C(=O)N(C(=O)C(C)C(O)c2ccccc2)C(c2ccccc2)C1c1ccccc1)C(O)c1ccccc1 (stereo not drawn) | 40.4 µM | 10.8 µM | 5.69 µM | 31.5 µM | 22.6 µM | 40.5 µM | 40.2 µM | > 100 µM | – | 26.7 µM | – | – | – | – | – | – | – | – | – | –
16 | COC(=O)c1ccccc1C1CN=NC12Cc1ccc3ccccc3c1C2=O (stereo not drawn) | > 100 µM | > 100 µM | > 100 µM | > 100 µM | > 100 µM | > 100 µM | > 100 µM | > 100 µM | > 100 µM | – | – | – | – | – | – | – | – | – | – | –
17 | Cc1ccc(-c2c(C#N)c(-c3ccc(Cl)cc3)c(C#N)c(=O)n2NS(=O)(=O)c2ccccc2)cc1 | > 100 µM | > 100 µM | > 100 µM | – | > 100 µM | > 100 µM | > 100 µM | > 100 µM | > 100 µM | > 100 µM | – | – | – | – | – | – | – | – | – | –
